Reference: paper PMC8389614, “A Comparison of Acute Pharmacological Effects of Methylone and MDMA Administration in Humans and Oral Fluid Concentrations as Biomarkers of Exposure” (Biology, 2021)

What was measured:
healthy poly-drug users [1] = assay: Subjective effects, visual analogue scales (VAS); assay type: in vivo, humans; set-up: key to VAS stimulated Dunnet’s Test / VAS change in lights Dunnet’s Test / VAS different body feeling Dunnet’s Test / VAS different surrounding Dunnet’s Test / VAS dizziness Dunnet’s Test / VAS headache Dunnet’s Test / VAS face flushing Dunnet’s Test: “a” (times 0–1 h); “b” (times 0–2 h); “c” (times 0–4 h); not significant (NS); conditions: for Time at which subjective effects in general reached maximum values / VAS change in lights AUC0–4h / VAS change in lights Emax / VAS content AUC0–4h / VAS content Emax / VAS different body feeling AUC0–4h / VAS different body feeling Emax / VAS different surrounding AUC0–4h / VAS different surrounding Emax / VAS dizziness AUC0–4h / VAS dizziness Emax / VAS face flushing AUC0–4h / VAS face flushing Emax / VAS good effects AUC0–4h / VAS good effects Emax / VAS headache AUC0–4h / VAS headache Emax / VAS high AUC0–4h / VAS high Emax / VAS intensity AUC0–4h / VAS intensity Emax / VAS stimulated AUC0–4h / VAS stimulated Emax / VAS change in lights Tmax: oral; for Time at which subjective effects in general reached maximum values: VAS, ARCI, VESSPA-SSE overall; for VAS change in lights AUC0–4h / VAS change in lights Emax / VAS content AUC0–4h / VAS content Emax / VAS different body feeling AUC0–4h / VAS different body feeling Emax / VAS different surrounding AUC0–4h / VAS different surrounding Emax / VAS dizziness AUC0–4h / VAS dizziness Emax / VAS face flushing AUC0–4h / VAS face flushing Emax / VAS good effects AUC0–4h / VAS good effects Emax / VAS headache AUC0–4h / VAS headache Emax / VAS high AUC0–4h / VAS high Emax / VAS intensity AUC0–4h / VAS intensity Emax / VAS stimulated AUC0–4h / VAS stimulated Emax / VAS change in lights Tmax: methylone 100–300 mg n=8, MDMA 75–100 mg n=6; for VAS change in lights AUC0–4h / VAS change in lights Emax / VAS content AUC0–4h / VAS content Emax / VAS different body feeling AUC0–4h / VAS different body feeling Emax / VAS different surrounding AUC0–4h / VAS different surrounding Emax / VAS dizziness AUC0–4h / VAS dizziness Emax / VAS face flushing AUC0–4h / VAS face flushing Emax / VAS good effects AUC0–4h / VAS good effects Emax / VAS headache AUC0–4h / VAS headache Emax / VAS high AUC0–4h / VAS high Emax / VAS intensity AUC0–4h / VAS intensity Emax / VAS stimulated AUC0–4h / VAS stimulated Emax: baseline-adjusted, mean ± SD; for VAS change in lights Tmax: median (min–max); for VAS change in lights Dunnet’s Test / VAS content Dunnet’s Test / VAS different body feeling Dunnet’s Test / VAS different surrounding Dunnet’s Test / VAS dizziness Dunnet’s Test / VAS face flushing Dunnet’s Test / VAS good effects Dunnet’s Test / VAS headache Dunnet’s Test / VAS high Dunnet’s Test / VAS intensity Dunnet’s Test / VAS stimulated Dunnet’s Test: time points significantly different from baseline
Description: (§1) The study was designed as a non-controlled prospective observational study in a naturalistic setting with methylone and MDMA self-administration. The methodology, including procedures and evaluations, coincides with previous observational–naturalistic studies aimed at evaluating the acute effects of other NPS [38, 39, 40]. Six subjects (5 M, 1 F) self-administered MDMA and 8 subjects (5 M, 3 F) self-administered methylone. Each subject participated only in one session. Participants brought their own substance obtained from an unknown source, which was tested by Energy Control, a harm reduction organization that provides a drug checking service to drug users. Pills containing methylone and MDMA were analyzed by gas chromatography associated with mass spectrometry (GC/MS), a technique that traces the presence of the most frequent drugs of abuse, such as MDMA, cocaine, heroin, amphetamine and methamphetamine, LSD, and multiple NPS (methylone, mephedrone, and other synthetic cathinones, synthetic cannabinoids, tryptamines, among others).
(§2) In both sessions, participants selected the dose of methylone or MDMA according to their previous drug use experience. Doses of methylone could be selected from a range (75–300 mg) that was previously defined according to the consulted literature. The WHO Expert Committee on Drug Dependence (Thirty-Sixth Meeting, Geneva, Switzerland, 16–20 June 2014) established that 60 mg of methylone was the threshold dose and doses over 250 mg were often related to very strong activity. Some users have reported uses of 300 mg of methylone as a common dose [www.erowid.org] (accessed on 15 June 2021). The mean of the selected doses of MDMA was 87.50 mg (3 subjects ingested 75 mg (2 males and 1 female), 3 males 100 mg). In the other study session, methylone doses ranged from 100 to 300 mg, with a mean of 187.50 mg. Based on their dose selection, 1 male ingested 100 mg, 2 subjects 150 mg (1 male and 1 female), 4 subjects 200 mg (2 males and 2 females), and 1 male 300 mg.
(§3) The sessions were conducted in a naturalistic setting. Participants were allowed to talk, read, listen to music, or play games, except during the evaluation times. However, they were asked to refrain from talking about the effects of the substance. All the subjects were evaluated simultaneously at baseline, 1, 2, and 4 h after administration of methylone or MDMA, which occurred approximately at 16:00 h. At each time point, evaluations were followed in a specific order: physiological effects, oral fluid collection, and subjective effects scales and questionnaires.
(§4) Subjective effects were evaluated at baseline, 1, 2, and 4 h after self-administration using visual analogue scales (VAS), the Addiction Research Center Inventory (ARCI), and the Evaluation of Subjective Effects of Substances with Abuse Potential questionnaire (VESSPA-SSE).
Visual analogue scales (100 mm, from “not at all” to “extremely”) contained 30 items that subjects were asked to rate, such as: intensity, stimulated, high, good effects, liking, happiness, drunkenness, changes in colors, changes in shapes, changes in lights, hallucinations (seeing lights or spots), hallucinations (seeing of animals), changes in hearing, hallucinations (hearing sounds or voices), different or changed body feeling, unreal body feeling, changes in distances, different surroundings, unreal surroundings, confusion, fear, depression or sadness, drowsiness, dizziness, bad effects, headache, sickness, vertigo, shortness of breath, and face flushing.
Vital signs (SBP, DBP, and HR) and subjective effects (VAS, ARCI, and VESSPA-SSE) were baseline-adjusted. Maximum effects and the time in which maximum effects appeared were determined, and the area under the curve (AUC0–4h) was calculated with the trapezoidal rule. […]

healthy poly-drug users [2] = assay: Subjective effects, VESSPA-SSE questionnaire; assay type: in vivo, humans; set-up: key to VESSPA PS Dunnet’s Test: “a” (times 0–1 h); “b” (times 0–2 h); “c” (times 0–4 h); not significant (NS); conditions: for VESSPA ACT (activity and energy) AUC0–4h / VESSPA ACT (activity and energy) Emax / VESSPA ANX (psychosomatic anxiety) AUC0–4h / VESSPA ANX (psychosomatic anxiety) Emax / VESSPA PS (psychotic symptoms) AUC0–4h / VESSPA PS (psychotic symptoms) Emax / VESSPA S (sedation) AUC0–4h / VESSPA S (sedation) Emax / VESSPA SOC (pleasure and sociability) AUC0–4h / VESSPA SOC (pleasure and sociability) Emax: oral, methylone 100–300 mg n=8, MDMA 75–100 mg n=6, baseline-adjusted, mean ± SD; for VESSPA ACT Dunnet’s Test / VESSPA ANX Dunnet’s Test / VESSPA PS Dunnet’s Test / VESSPA S Dunnet’s Test / VESSPA SOC Dunnet’s Test: time points significantly different from baseline
Description: as §1, §2, §3, §4
The VESSPA-SSE is a questionnaire sensitive to subjective effects related to stimulants such as MDMA that includes six subscales: sedation (S), psychosomatic anxiety (ANX), changes in perception (CP), pleasure and sociability (SOC), activity and energy (ACT), and psychotic symptoms (PS).
Vital signs (SBP, DBP, and HR) and subjective effects (VAS, ARCI, and VESSPA-SSE) were baseline-adjusted. Maximum effects and the time in which maximum effects appeared were determined, and the area under the curve (AUC0–4h) was calculated with the trapezoidal rule.
Thirdly, to find possible significant changes from baseline, a Dunnett multiple comparison test was conducted to compare each time point with baseline in both drug conditions (0–1 h, 0–2 h, 0–4 h).

## CNC(C)Cc1ccc2c(c1)OCO2 (stereo not shown) [MDMA, 3,4-methylenedioxymethamphetamine]
Healthy poly-drug users [1]
  Time at which subjective effects in general reached maximum values: 1.5 h
  VAS change in lights AUC0–4h: 40.00 ± 53.35
  VAS change in lights Emax: 20.00 ± 25.11 mm
  VAS content AUC0–4h: 186.25 ± 52.39
  VAS content Emax: 74.50 ± 18.96 mm
  VAS different body feeling AUC0–4h: 95.25 ± 53.40
  VAS different body feeling Emax: 50.33 ± 22.59 mm
  VAS different surrounding AUC0–4h: 27.33 ± 39.71
  VAS different surrounding Emax: 17.33 ± 17.68 mm
  VAS dizziness AUC0–4h: 20.17 ± 20.68
  VAS dizziness Emax: 13.00 ± 9.84 mm
  VAS face flushing AUC0–4h: 89.33 ± 58.31
  VAS face flushing Emax: 45.00 ± 22.74 mm
  VAS good effects AUC0–4h: 167.67 ± 54.01
  VAS good effects Emax: 67.83 ± 16.51 mm
  VAS headache AUC0–4h: 10.58 ± 18.86
  VAS headache Emax: 5.83 ± 7.68 mm
  VAS high AUC0–4h: 136.92 ± 41.05
  VAS high Emax: 60.17 ± 14.96 mm
  VAS intensity AUC0–4h: 111.33 ± 36.34
  VAS intensity Emax: 47 ± 11.19 mm
  VAS stimulated AUC0–4h: 113.17 ± 40.92
  VAS stimulated Emax: 50.17 ± 17.12 mm
  VAS change in lights Tmax: 1.5 (0.0–4.0) h
  VAS change in lights Dunnet’s Test: NS
  VAS content Dunnet’s Test: a, b, c
  VAS different body feeling Dunnet’s Test: a
  VAS different surrounding Dunnet’s Test: a
  VAS dizziness Dunnet’s Test: NS
  VAS face flushing Dunnet’s Test: a
  VAS good effects Dunnet’s Test: a, b
  VAS headache Dunnet’s Test: NS
  VAS high Dunnet’s Test: a, b
  VAS intensity Dunnet’s Test: a, b
  VAS stimulated Dunnet’s Test: a, b
Healthy poly-drug users [2]
  VESSPA ACT (activity and energy) AUC0–4h: 32.58 ± 15.71
  VESSPA ACT (activity and energy) Emax: 13.33 ± 4.84 score
  VESSPA ANX (psychosomatic anxiety) AUC0–4h: 16.50 ± 8.82
  VESSPA ANX (psychosomatic anxiety) Emax: 6.67 ± 4.37 score
  VESSPA PS (psychotic symptoms) AUC0–4h: 2.25 ± 2.36
  VESSPA PS (psychotic symptoms) Emax: 1.33 ± 1.21 score
  VESSPA S (sedation) AUC0–4h: 5.92 ± 6.09
  VESSPA S (sedation) Emax: 2.83 ± 2.23 score
  VESSPA SOC (pleasure and sociability) AUC0–4h: 38.67 ± 17.84
  VESSPA SOC (pleasure and sociability) Emax: 14.50 ± 5.96 score
  VESSPA ACT Dunnet’s Test: a, b
  VESSPA ANX Dunnet’s Test: a, b
  VESSPA PS Dunnet’s Test: NS
  VESSPA S Dunnet’s Test: a, c
  VESSPA SOC Dunnet’s Test: a, b

## CNC(C)C(=O)c1ccc2c(c1)OCO2 (stereo not shown) [Methylone, 3,4-methylenedioxymethcathinone]
Healthy poly-drug users [1]
  Time at which subjective effects in general reached maximum values: 2 h
  VAS change in lights AUC0–4h: 10.88 ± 11.85
  VAS change in lights Emax: 4.88 ± 4.82 mm
  VAS content AUC0–4h: 80.06 ± 82.59
  VAS content Emax: 35.25 ± 30.38 mm
  VAS different body feeling AUC0–4h: 44.13 ± 43.86
  VAS different body feeling Emax: 22.25 ± 20.60 mm
  VAS different surrounding AUC0–4h: 5.69 ± 10.39
  VAS different surrounding Emax: 4.38 ± 7.50 mm
  VAS dizziness AUC0–4h: 2.63 ± 3.02
  VAS dizziness Emax: 2.13 ± 2.53 mm
  VAS face flushing AUC0–4h: 64.50 ± 56.75
  VAS face flushing Emax: 31.25 ± 21.91 mm
  VAS good effects AUC0–4h: 74.06 ± 67.08
  VAS good effects Emax: 35.63 ± 30.63 mm
  VAS headache AUC0–4h: 23.63 ± 28.94
  VAS headache Emax: 20.25 ± 28.93 mm
  VAS high AUC0–4h: 55.06 ± 53.54
  VAS high Emax: 24.0 ± 21.28 mm
  VAS intensity AUC0–4h: 45.88 ± 43.66
  VAS intensity Emax: 20.0 ± 16.48 mm
  VAS stimulated AUC0–4h: 50.56 ± 47.38
  VAS stimulated Emax: 22.50 ± 18.81 mm
  VAS change in lights Tmax: 1.0 (0.0–2.0) h
  VAS change in lights Dunnet’s Test: a, b
  VAS content Dunnet’s Test: a, b
  VAS different body feeling Dunnet’s Test: NS
  VAS different surrounding Dunnet’s Test: NS
  VAS dizziness Dunnet’s Test: a
  VAS face flushing Dunnet’s Test: b
  VAS good effects Dunnet’s Test: a, b
  VAS headache Dunnet’s Test: c
  VAS high Dunnet’s Test: a, b
  VAS intensity Dunnet’s Test: a, b
  VAS stimulated Dunnet’s Test: b
Healthy poly-drug users [2]
  VESSPA ACT (activity and energy) AUC0–4h: 24.44 ± 17.87
  VESSPA ACT (activity and energy) Emax: 9.75 ± 6.25 score
  VESSPA ANX (psychosomatic anxiety) AUC0–4h: 17.94 ± 11.17
  VESSPA ANX (psychosomatic anxiety) Emax: 7.50 ± 4.69 score
  VESSPA PS (psychotic symptoms) AUC0–4h: 5.63 ± 5.58
  VESSPA PS (psychotic symptoms) Emax: 2.63 ± 2.20 score
  VESSPA S (sedation) AUC0–4h: 7.06 ± 6.45
  VESSPA S (sedation) Emax: 3.38 ± 2.50 score
  VESSPA SOC (pleasure and sociability) AUC0–4h: 31.31 ± 25.40
  VESSPA SOC (pleasure and sociability) Emax: 12.25 ± 8.31 score
  VESSPA ACT Dunnet’s Test: a, b
  VESSPA ANX Dunnet’s Test: b, c
  VESSPA PS Dunnet’s Test: b
  VESSPA S Dunnet’s Test: b, c
  VESSPA SOC Dunnet’s Test: a, b
